Laboratory results as given in patent publication US9758527B2, “Cyclohexene derivative, preparation method therefor, and pharmaceutical composition for preventing or treating metabolic diseases, containing same as active ingredient” (HYUNDAI PHARM CO., LTD., priority 2014, dated 2017).
Read-outs that look alike come from different tables or passages of the source.

Target: T1, G protein-coupled receptor 119 (GPR-119) (Mesocricetus auratus, UniProt A0A1U8CD06)
T1 construct: hamster-derived β-cells containing G protein-coupled receptor 119 (GPR-119), HIT-T15 cells; host or cells: HIT-T15 (hamster pancreatic β-cells)
T1 sequence (A0A1U8CD06 1-334): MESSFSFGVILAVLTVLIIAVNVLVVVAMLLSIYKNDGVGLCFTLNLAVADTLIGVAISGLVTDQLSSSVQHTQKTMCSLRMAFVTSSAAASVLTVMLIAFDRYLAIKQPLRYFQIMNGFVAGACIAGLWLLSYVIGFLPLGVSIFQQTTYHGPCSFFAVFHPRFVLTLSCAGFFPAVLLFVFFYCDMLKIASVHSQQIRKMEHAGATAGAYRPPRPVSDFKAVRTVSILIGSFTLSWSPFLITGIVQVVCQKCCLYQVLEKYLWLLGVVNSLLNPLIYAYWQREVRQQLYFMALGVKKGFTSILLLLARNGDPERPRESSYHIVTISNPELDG
Test: Evaluation of cAMP activity in HIT-T15 cells (HTRF cAMP dynamic kit)
Format: cell-based, hamster
Details: cAMP activation
Procedure, shortened: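 HIT-T15 cells, 60,000/well, treated next day with compound at six concentrations ([…]) for 1 h at 37° C. Lysate cAMP quantified by HTRF competitive immunoassay (D2-cAMP, cryptate anti-cAMP); activity taken as change in FRET signal relative to DMSO.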

[1] = 1 h at 37° C., six concentrations, read-out: EC50

| Compound | EC50 [1] [µM] | EC50 (read-out: EC50 value) [µM] |
| --- | --- | --- |
| CC(C)(C)OC(=O)N1CCC(COc2ccc(C3=CCC(C(=O)N4CCOCC4)CC3)cn2)CC1 (stereo not drawn) [Example 70, tert-butyl 4-((5-(4-(morpholine-4-carbonyl)cyclohex-1-enyl)pyridin-2-yloxy)methyl)piperidine-1-carboxylate] | 0.045 | ≤ 0.05 |
| CC(C)(C)OC(=O)N1CCC(COc2ccc(C3=CCC(C(=O)N4CCSCC4)CC3)cc2F)CC1 (stereo not drawn) [Example 71, tert-butyl 4-((2-fluoro-4-(4-(thiomorpholine-4-carbonyl)cyclohex-1-enyl)phenoxy)methyl)piperidine-1-carboxylate] | 0.0054 | ≤ 0.05 |
| CC(C)(C)OC(=O)N1CCC(COc2ccc(C3=CCC(C(=O)N4CCSCC4)CC3)cn2)CC1 (stereo not drawn) [Example 72, tert-butyl 4-((5-(4-(thiomorpholine-4-carbonyl)cyclohex-1-enyl)pyridin-2-yloxy)methyl)piperidine-1-carboxylate] | 0.025 | ≤ 0.05 |
| CC(C)(C)OC(=O)N1CCC(COc2ccc(C3=CCC(C(=O)N4CCS(=O)(=O)CC4)CC3)cc2F)CC1 (stereo not drawn) [Example 73, tert-butyl 4-((2-fluoro-4-(4-(thiomorpholine-1,1-dioxide-4-carbonyl)cyclohex-1-enyl)phenoxy)methyl)piperidine-1-carboxylate] | 0.011 | ≤ 0.05 |
| CC(C)c1noc(N2CCC(COc3ccc(C4=CCC(C(=O)N5CCSCC5)CC4)cc3)CC2)n1 (stereo not drawn) [Example 74, (4-(4-((1-(3-isopropyl-1,2,4-oxadiazol-5-yl)piperidin-4-yl)methoxy)phenyl)cyclohex-3-enyl)(thiomorpholino)methanone] | 0.0062 | ≤ 0.05 |
| CC(C)c1noc(N2CCC(COc3ccc(C4=CCC(C(=O)NCCF)CC4)cc3)CC2)n1 (stereo not drawn) [Example 75, N-(2-fluoroethyl)-4-(4-((1-(3-isopropyl-1,2,4-oxadiazol-5-yl)piperidin-4-yl)methoxy)phenyl)cyclohex-3-enecarboxamide] | 0.21 | – |
| CC(C)c1noc(N2CCC(COc3ccc(C4=CCC(C(=O)N(C)CCCNC(=O)OC(C)(C)C)CC4)cc3)CC2)n1 (stereo not drawn) [Example 76, tert-butyl 3-(4-(4-((1-(3-isopropyl-1,2,4-oxadiazol-5-yl)piperidin-4-yl)methoxy)phenyl)-N-methylcyclohex-3-enecarboxamido)propylcarbamate] | 0.012 | ≤ 0.05 |
| CC(C)c1noc(N2CCC(COc3ccc(C4=CCC(C(=O)N(C)CCCN)CC4)cc3)CC2)n1 (stereo not drawn) [Example 77, N-(3-aminopropyl)-4-(4-((1-(3-isopropyl-1,2,4-oxadiazol-5-yl)piperidin-4-yl)methoxy)phenyl)-N-methylcyclohex-3-enecarboxamide] | 0.012 | ≤ 0.05 |
| CC(C)c1noc(N2CCC(COc3ccc(C4=CCC(C(=O)NCC(F)(F)F)CC4)cc3)CC2)n1 (stereo not drawn) [Example 78, 4-(4-((1-(3-isopropyl-1,2,4-oxadiazol-5-yl)piperidin-4-yl)methoxy)phenyl)-N-(2,2,2-trifluoroethyl)cyclohex-3-enecarboxamide] | 0.1 | – |
| CCN1CCN(C(=O)C2CC=C(c3ccc(OCC4CCN(c5nc(C(C)C)no5)CC4)cc3)CC2)CC1 (stereo not drawn) [Example 79, (4-ethylpiperazin-1-yl)(4-(4-((1-(3-isopropyl-1,2,4-oxadiazol-5-yl)piperidin-4-yl)methoxy)phenyl)cyclohex-3-enyl)methanone] | 0.049 | ≤ 0.05 |
| CC(C)c1noc(N2CCC(COc3ccc(C4=CCC(C(=O)N(C)CCO)CC4)cc3F)CC2)n1 (stereo not drawn) [Example 81, 4-(3-fluoro-4-((1-(3-isopropyl-1,2,4-oxadiazol-5-yl)piperidin-4-yl)methoxy)phenyl)-N-(2-hydroxyethyl)-N-methylcyclohex-3-enecarboxamide] | 0.009 | ≤ 0.05 |
| CC(C)(CO)CNC(=O)C1CC=C(c2ccc(OCC3CCN(C(=O)OC(C)(C)C)CC3)c(F)c2)CC1 (stereo not drawn) [Example 82, tert-butyl 4-((2-fluoro-4-(4-(3-hydroxy-2,2-dimethylpropylcarbamoyl)cyclohex-1-enyl)phenoxy)methyl)piperidine-1-carboxylate] | 0.009 | ≤ 0.05 |

Next, values leading:

| EC50 [1] [µM] | EC50 (read-out: EC50 value) [µM] | Compound |
| --- | --- | --- |
| 0.075 | – | CC(C)c1noc(N2CCC(COc3ccc(C4=CCC(C(=O)N[C@@H](C)CO)CC4)cc3F)CC2)n1 (stereo partly drawn) [Example 83, 4-(3-fluoro-4-((1-(3-isopropyl-1,2,4-oxadiazol-5-yl)piperidin-4-yl)methoxy)phenyl)-N-((S)-1-hydroxypropan-2-yl)cyclohex-3-enecarboxamide] |
| 0.03 | ≤ 0.05 | CC(C)c1noc(N2CCC(COc3ccc(C4=CCC(C(=O)N[C@H](C)CO)CC4)cc3F)CC2)n1 (stereo partly drawn) [Example 84, 4-(3-fluoro-4-((1-(3-isopropyl-1,2,4-oxadiazol-5-yl)piperidin-4-yl)methoxy)phenyl)-N-((R)-1-hydroxypropan-2-yl)cyclohex-3-enecarboxamide] |
| 0.018 | ≤ 0.05 | CC(C)(C)OC(=O)N1CCC(COc2ccc(C3=CCC(C(=O)NCC(F)F)CC3)cc2F)CC1 (stereo not drawn) [Example 85, tert-butyl 4-((4-(4-(2,2-difluoroethylcarbamoyl)cyclohex-1-enyl)-2-fluorophenoxy)methyl)piperidine-1-carboxylate] |
| 0.13 | – | CC(C)(C)OC(=O)N1CCC(COc2ccc(C3=CCC(C(=O)NCC(F)(F)F)CC3)cn2)CC1 (stereo not drawn) [Example 86, tert-butyl 4-((5-(4-(2,2,2-trifluoroethylcarbamoyl)cyclohex-1-enyl)pyridin-2-yloxy)methyl)piperidine-1-carboxylate] |
| 0.07 | – | CC(C)(C)OC(=O)N1CCC(COc2ccc(C3=CCC(C(=O)NCC(F)F)CC3)cn2)CC1 (stereo not drawn) [Example 87, tert-butyl 4-((5-(4-(2,2-difluoroethylcarbamoyl)cyclohex-1-enyl)pyridin-2-yloxy)methyl)piperidine-1-carboxylate] |
| 0.13 | – | CC(C)(C)OC(=O)N1CCC(COc2ccc(C3=CCC(C(=O)NCCF)CC3)cn2)CC1 (stereo not drawn) [Example 88, tert-butyl 4-((5-(4-(2-fluoroethylcarbamoyl)cyclohex-1-enyl)pyridin-2-yloxy)methyl)piperidine-1-carboxylate] |
| 0.021 | ≤ 0.05 | CC(C)c1noc(N2CCC(COc3ccc(C4=CCC(C(=O)N5CCN(C6CC6)CC5)CC4)cc3)CC2)n1 (stereo not drawn) [Example 89, (4-cyclopropylpiperazin-1-yl)(4-(4-((1-(3-isopropyl-1,2,4-oxadiazol-5-yl)piperidin-4-yl)methoxy)phenyl)cyclohex-3-enyl)methanone] |
| 0.024 | ≤ 0.05 | CC(C)(C)OC(=O)N1CCC(COc2ccc(C3=CCC(C(=O)N4CC[C@@H](F)C4)CC3)cn2)CC1 (stereo partly drawn) [Example 90, tert-butyl 4-((5-(4-((R)-3-fluoropyrrolidine-1-carbonyl)cyclohex-1-enyl)pyridin-2-yloxy)methyl)piperidine-1-carboxylate] |
| 0.028 | ≤ 0.05 | CC(C)(C)OC(=O)N1CCC(COc2ccc(C3=CCC(C(=O)N4CC[C@H](F)C4)CC3)cn2)CC1 (stereo partly drawn) [Example 91, tert-butyl 4-((5-(4-((S)-3-fluoropyrrolidine-1-carbonyl)cyclohex-1-enyl)pyridin-2-yloxy)methyl)piperidine-1-carboxylate] |
| 0.064 | – | CC(C)c1noc(N2CCC(COc3ccc(C4=CCC(C(=O)NCC(F)(F)F)CC4)cc3F)CC2)n1 (stereo not drawn) [Example 92, 4-(3-fluoro-4-((1-(3-isopropyl-1,2,4-oxadiazol-5-yl)piperidin-4-yl)methoxy)phenyl)-N-(2,2,2-trifluoroethyl)cyclohex-3-enecarboxamide] |
| 0.05 | ≤ 0.05 | CC(C)c1noc(N2CCC(COc3ccc(C4=CCC(C(=O)NCC(F)F)CC4)cc3F)CC2)n1 (stereo not drawn) [Example 93, N-(2,2-difluoroethyl)-4-(3-fluoro-4-((1-(3-isopropyl-1,2,4-oxadiazol-5-yl)piperidin-4-yl)methoxy)phenyl)cyclohex-3-enecarboxamide] |
| 0.068 | – | CC(C)c1noc(N2CCC(COc3ccc(C4=CCC(C(=O)NCCF)CC4)cc3F)CC2)n1 (stereo not drawn) [Example 94, 4-(3-fluoro-4-((1-(3-isopropyl-1,2,4-oxadiazol-5-yl)piperidin-4-yl)methoxy)phenyl)-N-(2-fluoroethyl)cyclohex-3-enecarboxamide] |
| 0.016 | – | CC(C)c1noc(N2CCC(COc3ccc(C4=CCC(C(=O)N5CC[C@H](F)C5)CC4)cc3F)CC2)n1 (stereo partly drawn) [Example 95, (4-(3-fluoro-4-((1-(3-isopropyl-1,2,4-oxadiazol-5-yl)piperidin-4-yl)methoxy)phenyl)cyclohex-3-enyl)((S)-3-fluoropyrrolidin-1-yl)methanone] |
| 0.027 | ≤ 0.05 | CC(C)c1noc(N2CCC(COc3ccc(C4=CCC(C(=O)N5CC[C@@H](F)C5)CC4)cc3F)CC2)n1 (stereo partly drawn) [Example 96, (4-(3-fluoro-4-((1-(3-isopropyl-1,2,4-oxadiazol-5-yl)piperidin-4-yl)methoxy)phenyl)cyclohex-3-enyl)((R)-3-fluoropyrrolidin-1-yl)methanone] |
| 0.0084 | ≤ 0.05 | CC(C)c1noc(N2CCC(COc3ccc(C4=CCC(C(=O)N5CCOCC5)CC4)cc3F)CC2)n1 (stereo not drawn) [Example 97, (4-(3-fluoro-4-((1-(3-isopropyl-1,2,4-oxadiazol-5-yl)piperidin-4-yl)methoxy)phenyl)cyclohex-3-enyl)(morpholino)methanone] |
